Test results published in US11744802B2, “Therapeutic compositions for treatment of human immunodeficiency virus” (Gilead Sciences, Inc., priority 2015, dated 2023).
Like-named read-outs stand apart in the source and are kept apart here.

Columns and labels:
[1] = Relative bioavailability and food-effect crossover study, cohort 1 (bilayer tablet F2 vs F1 co-administered with F3); details: for AUC(0-inf): AUCinf; for AUC(0-t): AUClast
Description: Studies were carried out to assess the pharmacokinetic profiles of the formulations F1, F2, and F3 of Examples 1, 2, and 2A. A randomized, open-label, multiple-period, fixed-sequence, crossover study was performed to evaluate the relative bioavailability of bilayer tablet formulation F2 compared with that of single agent tablet formulation F1 co-administered simultaneously with a fixed-dose combination tablet containing emtricitabine and tenofovir alafenamide (tablet formulation F3). The bioavailability was evaluated in healthy subjects.
The following plasma pharmacokinetic parameters were calculated: Cmax, AUClast, and AUCinf.
Pharmacokinetics: Plasma concentrations and PK parameters were listed and summarized by analyte and treatment group using descriptive statistics. In addition, a parametric analysis of variance using a mixed-effects model appropriate for a crossover design was fitted to the natural logarithmic transformation of the PK parameters (AUCinf, AUClast, and Cmax).

[2] = Food effect on single dose Compound of Formula I 100 mg single agent tablet (8 subjects); assay type: in vivo, human; details: for AUC(0-inf) / AUC(0-t) / Cmax: human, plasma, oral, 100 mg, mean, Compound of Formula I 100 mg single agent tablet, n = 8
Description: In this study, a single dose of the compound of Formula I was administered in two periods with fixed sequence under fasted and fed conditions respectively. A washout of at least five half-lives was required between fasted and fed sequences.
Subjects continued to fast until 4 hours post dose or until collection of the 4-hour postdose blood sample.
The 90% CI for the geometric least square mean (GLSM) ratios for fast versus fed was constructed. The statistical comparison of the pharmacokinetic parameters of the compound of Formula 1 following single dose administration of this tablet formulation in fed and fasted states is presented in the table below.

[3] = Pharmacokinetic study cohort 2 (bilayer tablet F7 vs F1 + F3; food effect on F7); details: for AUCinf, Mean (% CV) / Cmax, Mean (% CV) / AUClast, Mean (% CV): plasma;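 as to all read-outs here: plasma PK parameters per analyte summarized descriptively, with GLSM ratios derived from mixed-effects ANOVA on ln-transformed values (treatment as fixed effect, subject as random effect)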
Description: (§1) The pharmacokinetic study of Example 3 was continued with a second treatment group (cohort) to assess the pharmacokinetic profile of formulation F7 of Example 7 compared with that of formulation F2.
(§2) The following plasma pharmacokinetic parameters were calculated: AUClast, AUCinf, % AUCexp, Cmax, Clast, Tmax, Tlast, CL/F, Vz/F, and t1/2.
(§3) Pharmacokinetics: Individual subject concentration data and individual subject PK parameters for each analyte (compound of Formula 1, FTC, and TAF) were listed and summarized using descriptive statistics by treatment group (cohort) and treatment. Summary statistics were determined for both individual subject concentration data by time point, cohort, and treatment and individual subject PK parameters by cohort and treatment. Also, the geometric mean, 95% confidence interval (CI), and the mean, and standard deviation (SD) of the natural log-transformed values were presented for individual subject PK parameter data. The sample size for each time point was based on the number of subjects with nonmissing concentration data at that time point. The number of subjects with concentration below the level of quantitation (BLQ) was presented for each time point.
(§4) Statistical comparisons of the natural log-transformed PK parameters for each analyte and treatment comparison of interest were performed. The statistical modelling was based on the PK Analysis set for the analyte under evaluation. For each analyte, all subjects with available data for the PK parameter under evaluation were included in the modelling. The statistical comparisons using Treatment A as a reference only used data from this cohort, not from the earlier cohort of Example 3 (i.e., Treatment A was not pooled).
(§5) For each analyte and each PK parameter, a parametric (normal theory) mixed-effects ANOVA model was fitted to the natural log-transformed values of the PK parameter under evaluation. The statistical model included treatment as a fixed effect and subject as a random effect.

[4] = Physicochemical properties of the active ingredients (pKa, pH-dependent solubility and stability, BCS class); details: for pH of maximum solubility: pH-dependent solubility
[5] = in vivo
Description: as §1, §2, §3, §4, §5

[6] = human, plasma, oral, mean, F2 Compound of Formula I/F/TAF (75/200/25 mg), high-fat meal, Test, N = 28
[7] = human, plasma, oral, plasma, mean, F1 Compound of Formula I (75 mg) + F3 F/TAF (200/25 mg) co-administered, fasted, Reference, N = 28, cohort 1
[8] = 100 mg single dose, high-calorie/high-fat breakfast
[9] = F7 (50/200/25 mg), high fat meal, N = 27
[10] = F7 (50/200/25 mg), moderate fat meal, N = 27
[11] = Formulation F1 + F3 (75 mg + F/TAF 200/25 mg), fasted, Reference, N = 28, cohort 2
[12] = F2 (75/200/25 mg) high-fat meal / fasted
[13] = Test F2 (75/200/25 mg) / Reference F1 + F3, fasted
[14] = human, in vivo, plasma, mean, F1 Compound of Formula I (75 mg) + F3 F/TAF (200/25 mg) co-administered, fasted, Reference, N = 28, cohort 1
[15] = human, in vivo, plasma, mean, F2 Compound of Formula I/F/TAF (75/200/25 mg), high-fat meal, Test, N = 28
[16] = human, in vivo, plasma, mean, bilayer tablet F2 Compound of Formula I/F/TAF (75/200/25 mg), single dose, fasted, N = 28
[17] = Test F7 (50/200/25 mg) / Reference F1 + F3, fasted

SMILES: O=C(NCc1c(F)cc(F)cc1F)c1cn2c(c(O)c1=O)C(=O)N1[C@H]3CC[C@H](C3)O[C@@H]1C2 [Compound of Formula I, (2R,5S,13aR)-8-hydroxy-7,9-dioxo-N-(2,4,6-trifluorobenzyl)-2,3,4,5,7,9,13,13a-octahydro-2,5-methanopyrido[1′,2′:4,5]pyrazino[2,1-b][1,3]oxazepine-10-carboxamide]
- AUCinf higher after F2 than after F1 with F3 ([1]; fasted): 27%
- Cmax higher after F2 than after F1 with F3 ([1]; fasted): 31%
- total exposure higher in F2 than in F1 co-dosed with F3 ([1]; fasted): approximately 30%
- AUC(0-inf) [1, 6]: 226000 ng·h/mL
- AUC(0-inf) [1, 7]: 123000 ng·h/mL
- AUC(0-t) [1, 6]: 217000 ng·h/mL
- AUC(0-t) ([1]; human, plasma, oral, mean, bilayer tablet F2 Compound of Formula I/F/TAF (75/200/25 mg), single dose, fasted, N = 28): 152000 ng·h/mL
- AUC(0-t) [1, 7]: 120000 ng·h/mL
- Cmax [1, 7]: 5590 ng/mL
- AUCinf ([1]; plasma, mean, bilayer tablet F2 Compound of Formula I/F/TAF (75/200/25 mg), single dose, fasted, N = 28): 156,637.5 h · ng/mL
- AUCinf higher with high-fat meal than fasted ([1]; tablet formulation F2): 46%
- Cmax higher with high-fat meal than fasted ([1]; tablet formulation F2): 27%
- changes in clearance and t1/2 following administration with food ([2]; 100 mg single dose): no apparent changes
- increase of GLSM value of AUCinf with food [2, 8]: 84%
- increase of GLSM value of Cmax with food [2, 8]: 101%
- AUC(0-inf) ([2]; Fasted): 118 µg·h/mL
- AUC(0-t) ([2]; Fasted): 116 µg·h/mL
- Cmax ([2]; Fasted): 5880 ng/mL
- AUC(0-inf) ([2]; Fed (high-fat breakfast)): 214 µg·h/mL
- AUC(0-t) ([2]; Fed (high-fat breakfast)): 209 µg·h/mL
- Cmax ([2]; Fed (high-fat breakfast)): 11300 ng/mL
- exposure in Formulation F7 compared with Formulation F2 ([3]; 50 mg vs 75 mg dose): proportionally lower
- AUCinf, Mean (% CV) [3, 9]: 140,032.4 (21.8) hr · ng/mL
- Cmax, Mean (% CV) [3, 9]: 5936.3 (18.3) ng/mL
- AUCinf, Mean (% CV) [3, 10]: 140,197.7 (23.6) hr · ng/mL
- Cmax, Mean (% CV) [3, 10]: 6279.6 (18.3) ng/mL
- AUCinf, Mean (% CV) [3, 11]: 146,931.6 (31.1) hr · ng/mL
- Cmax, Mean (% CV) [3, 11]: 6791.1 (26.4) ng/mL
- AUCinf higher with high-fat meal than fasted ([3]; tablet formulation F7): 24%
- AUCinf higher with moderate fat meal than fasted ([3]; tablet formulation F7): 24%
- Cmax higher with high-fat meal than fasted ([3]; tablet formulation F7): 13%
- Cmax higher with moderate fat meal than fasted ([3]; tablet formulation F7): 20%
- BCS class [4]: BCS Class 2
- pH of maximum chemical stability [4]: 4
- pKa [4]: 8.6
- solubility (BCS classification) [4]: low solubility
- pH of maximum solubility [4]: 10.5

SMILES: Nc1nc(=O)n([C@@H]2CS[C@H](CO)O2)cc1F [Emtricitabine, 4-amino-5-fluoro-1-[(2R,5S)-2-(hydroxymethyl)-1,3-oxathiolan-5-yl]-1,2-dihydropyrimidin-2-one]
- geometric mean ratio of AUCinf (food effect) ([1]; human, in vivo): 1.00
- geometric mean ratio of Cmax (food effect) ([1]; human, in vivo): 0.83
- exposure following F2 compared with F1 with the F/TAF FDC (F3) ([1]; in vivo): similar
- exposure of Formulation F7 compared with coadministered reference tablets [5]: similar
- BCS class [4]: BCS Class 1
- pKa [4]: 2.65
- solubility (BCS classification) [4]: high solubility

SMILES: CC(C)OC(=O)[C@H](C)N[P@](=O)(CO[C@H](C)Cn1cnc2c(N)ncnc21)Oc1ccccc1 [Tenofovir alafenamide]
- % GLSM Ratio of AUCinf [1, 12]: 158.20%
- % GLSM Ratio of AUClast [1, 12]: 156.81%
- % GLSM Ratio of Cmax [1, 12]: 83.22%
- % GLSM Ratio of AUCinf [1, 13]: 91.56%
- % GLSM Ratio of AUClast [1, 13]: 91.62%
- % GLSM Ratio of Cmax [1, 13]: 95.47%
- geometric mean ratio of AUCinf (food effect) ([1]; bilayer tablet formulation F2): 1.58
- geometric mean ratio of Cmax (food effect) ([1]; bilayer tablet formulation F2): 0.83
- exposure following F2 compared with F1 with the F/TAF FDC (F3) ([1]; fasted): similar
- AUC(0-inf) [1, 14]: 225 ng·h/mL
- AUC(0-inf) [1, 15]: 320 ng·h/mL
- AUC(0-inf) [1, 16]: 207 ng·h/mL
- AUC(0-t) [1, 14]: 224 ng·h/mL
- AUC(0-t) [1, 15]: 315 ng·h/mL
- AUC(0-t) [1, 16]: 206 ng·h/mL
- Cmax [1, 14]: 277 ng/mL
- Cmax [1, 15]: 212 ng/mL
- Cmax [1, 16]: 253 ng/mL
- geometric mean ratio of Cmax (food effect) ([1]; tablet formulation F1 (codosed with F3)): 0.85
- geometric mean ratio of AUCinf (food effect) ([1]; tablet formulation F1 codosed with tablet formulation F3): 1.75
- % GLSM Ratio (90% CI) of AUCinf ([3]; F7 high fat meal / fasted): 166.55 (146.54, 189.29) %
- % GLSM Ratio (90% CI) of AUClast ([3]; F7 high fat meal / fasted): 162.62 (143.10, 184.80) %
- % GLSM Ratio (90% CI) of Cmax ([3]; F7 high fat meal / fasted): 91.71 (73.46, 114.49) %
- % GLSM Ratio (90% CI) of AUCinf ([3]; F7 moderate fat meal / fasted): 148.23 (130.42, 168.47) %
- % GLSM Ratio (90% CI) of AUClast ([3]; F7 moderate fat meal / fasted): 148.20 (130.41, 168.41) %
- % GLSM Ratio (90% CI) of Cmax ([3]; F7 moderate fat meal / fasted): 99.04 (79.33, 123.65) %
- % GLSM Ratio (90% CI) of AUCinf [3, 17]: 85.48 (75.33, 97.00) %
- % GLSM Ratio (90% CI) of AUClast [3, 17]: 85.37 (75.24, 96.85) %
- % GLSM Ratio (90% CI) of Cmax [3, 17]: 84.17 (67.59, 104.81) %
- Cmax lower for Formulation F7 than for the coadministered reference tablets ([3]; fasted): approximately 16%
- exposure of Formulation F7 compared with coadministered reference tablets ([3]; fasted): similar
- AUCinf, Mean (% CV) [3, 9]: 318.4 (32.8) hr · ng/mL
- AUClast, Mean (% CV) [3, 9]: 310.3 (34.9) hr · ng/mL
- Cmax, Mean (% CV) [3, 9]: 236.6 (65.1) ng/mL
- AUCinf, Mean (% CV) [3, 10]: 293.1 (40.9) hr · ng/mL
- AUClast, Mean (% CV) [3, 10]: 290.6 (41.3) hr · ng/mL
- Cmax, Mean (% CV) [3, 10]: 251.1 (66.7) ng/mL
- AUCinf, Mean (% CV) [3, 11]: 238.3 (45.0) hr · ng/mL
- AUClast, Mean (% CV) [3, 11]: 236.7 (45.3) hr · ng/mL
- Cmax, Mean (% CV) [3, 11]: 291.9 (55.4) ng/mL
- BCS class [4]: BCS Class 3
- pKa [4]: 3.9
- solubility (BCS classification) [4]: high equilibrium solubility
- permeability (BCS classification) ([4]; not told): lower apparent permeability
- pH of maximum solubility [4]: ~3
